Laboratory results published in patent US11827628B2, “Compositions and methods for inhibition of the JAK pathway” (Rigel Pharmaceuticals, Inc., priority 2005, dated 2023).

system: Primary human T-cells; assay: Primary Human T-Cell Proliferation Assay Stimulated with IL-2 (CellTiter-Glo); assay type: cell-based; conditions: primary human T-cell proliferation stimulated with IL-2; read-out: IC50, Example 42
Outline: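 Peripheral blood T-cells pre-activated with anti-CD3/anti-CD28 and IL-2 were washed free of IL-2, then cultured with compound plus IL-2 for 72 hours at 37° C, duplicate wells. Viability read as ATP by CellTiter-Glo luminescence; IC50 reported.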

Point of comparison: `CNS(=O)(=O)c1cc(Nc2ncc(F)c(Nc3cccc(OCc4cccnc4)c3)n2)ccc1C` [Compound I-184, 5-Fluoro-N2-[3-(N-methylaminosulfony)-4-methylphenyl]-5-fluoro-N4-[3-(3-pyridinyl)methyleneoxyphenyl]-2,4-pyrimidinediamine], IC50 2570 nM. Against it:
- Cc1ccc(Nc2ncc(F)c(Nc3cccc(OCc4cccnc4)c3)n2)cc1S(N)(=O)=O [Compound I-183, N2-(3-Aminosulfonyl-4-methylphenyl)-5-fluoro-N4-[3-(3-pyridinyl)methyleneoxyphenyl]-2,4-pyrimidinediamine] — within 1.5-fold, 1830 nM
- NS(=O)(=O)c1ccc(Nc2ncc(F)c(Nc3ccc(OCc4ccccn4)cc3)n2)cc1 [Compound I-163, N2-(4-Aminosulfonylphenyl)-5-fluoro-N4-[4-(2-pyridinyl)methyleneoxyphenyl]-2,4-pyrimidinediamine] — 5.9-fold lower, 439 nM
- CCN(CC)CCNS(=O)(=O)c1ccc(Nc2ncc(F)c(Nc3cccc(OCc4cccnc4)c3)n2)cc1 [Compound I-186, N2-[4-(2-N,N-Diethylaminoethyl)aminosulfonylphenyl)-5-fluoro-N4-[3-(3-pyridinyl)methyleneoxyphenyl]-2,4-pyrimidinediamine] — 2.4-fold lower, 1080 nM
- Cc1ccc(Nc2ncc(F)c(Nc3ccc(OC(C)(C)C(N)=O)cc3)n2)cc1S(N)(=O)=O [Compound I-127, N4-[4-(1-Aminocarbonyl-1-methyl)ethoxy]phenyl-N2-(3-aminosulfonyl-4-methyl)phenyl-5-fluoro-2,4-pyrimidinediamine] — 5-fold lower, 510 nM
- Cc1cc(COc2ccc(Nc3nc(Nc4ccc(C)c(S(N)(=O)=O)c4)ncc3F)cc2)[nH]n1 [Compound I-197, N2-(3-Aminosulfonyl-4-methylphenyl)-5-fluoro-N4-[4-(3-methyl-(1H)-pyrazol-5-yl)methyleneoxyphenyl]-2,4-pyrimidinediamine] — 7.8-fold lower, 329 nM
- Cc1ccc(Nc2ncc(F)c(Nc3ccc(OCc4ccccn4)cc3)n2)cc1S(N)(=O)=O [Compound I-160, N2-(3-Aminosulfonyl-4-methylphenyl)-5-fluoro-N4-[4-(2-pyridinyl)methyleneoxyphenyl]-2,4-pyrimidinediamine] — 10-fold lower, 248 nM
- CCN(CC)CCNS(=O)(=O)c1ccc(Nc2ncc(F)c(Nc3ccc(OCc4ccccn4)cc3)n2)cc1 [Compound I-165, N2-[4-(2-N,N-Diethylaminoethyl)aminosulfonylphenyl)-5-fluoro-N4-[4-(2-pyridinyl)methyleneoxyphenyl]-2,4-pyrimidinediamine] — 5.8-fold lower, 446 nM
- CC(C)c1ccc(Nc2ncc(F)c(Nc3ccc(OCC#N)cc3)n2)cc1S(N)(=O)=O [Compound I-8, N2-(3-Aminosulfonyl-4-iso-propylphenyl)-N4-(4-cyanomethyleneoxyphenyl)-5-fluoro-2,4-pyrimidinediamine] — 15-fold lower, 174 nM
- CNS(=O)(=O)c1cc(Nc2ncc(F)c(Nc3ccc(-c4ccccn4)c(OCF)c3)n2)ccc1C [Compound I-173, 5-Fluoro-N2-[3-N-(methyl)aminosulfonyl-4-methylphenyl]-N4-[4-(2-pyridinyl)-3-fluoromethyleneoxyphenyl]-2,4-pyrimidinediamine] — 2.8-fold lower, 907 nM
- NS(=O)(=O)c1cccc(Nc2ncc(F)c(Nc3ccc(SCc4cccnc4)cc3)n2)c1 [Compound I-192, N2-(3-Aminosulfonylphenyl)-5-fluoro-N4-[4-(3-pyridinyl)-methylenethiophenyl]-2,4-pyrimidinediamine] — 17-fold lower, 155 nM
- Cc1cc(COc2ccc(Nc3nc(Nc4ccc(C)c(S(N)(=O)=O)c4)ncc3F)cc2)n(Cc2ccccc2)n1 [Compound I-199, N2-(3-Aminosulfonyl-4-methylphenyl)-N4-[4-(1-benzyl-3-methyl-(1H)-pyrazol-5-yl)methyleneoxyphenyl]-5-fluoro-2,4-pyrimidinediamine] — within 1.5-fold, 3030 nM
- Cc1cc(Nc2nc(Nc3ccc(S(N)(=O)=O)cc3)ncc2F)cc(C)c1OC(C)C(N)=O (racemic) [Compound I-122, Racemic N4-[4-(1-Aminocarbonyl)ethoxy-3,5-dimethyl]phenyl-N2-(4-aminosulfonyl)phenyl-5-fluoro-2,4-pyrimidinediamine] — within 1.5-fold, 3500 nM
- Cc1cc(Nc2nc(Nc3ccc(S(N)(=O)=O)cc3)ncc2F)ccc1OCC(N)=O [Compound I-113, N4-(4-Aminocarbonylmethoxy-3-methyl)phenyl-N2-(4-aminosulfonyl)phenyl-5-fluoro-2,4-pyrimidinediamine] — 1.5-fold lower, 1690 nM
- CNS(=O)(=O)c1cc(Nc2ncc(C)c(Nc3ccc(OCc4ccccn4)cc3)n2)ccc1C [Compound I-180, 5-Methyl-N2-[3-(N-methylaminosulfony)-4-methylphenyl]-N4-[4-(2-pyridinyl)methyleneoxyphenyl]-2,4-pyrimidinediamine] — 90-fold lower, 28.7 nM

same assay, conditions: primary human T-cells stimulated with IL-2, proliferation; read-out: IC50, Example 42

Point of comparison: “N4-(3-Chloro-4-cyanomethyleneoxyphenyl)-5-fluoro-N2-(5-methyl-2H-1,1-dioxide-1,2,4-benzothiadiazin-7-yl)-2,4-pyrimidinediamine [VIII-2]”, IC50 409 nM. Against it:
- Cc1ccc(Nc2ncc(F)c(Nc3ccc4c(c3)CNCC4)n2)cc1S(N)(=O)=O [VII-16, N2-(3-Aminosulfonyl-4-methylphenyl)-5-fluoro-N4-(1,2,3,4-tetrahydroisoquin-7-yl)-2,4-pyrimidinediamine] — 2.6-fold higher, 1070 nM
- COCCOc1ccc(Nc2nc(Nc3ccc(C)c(S(N)(=O)=O)c3)ncc2F)cc1 [VI-112, N2-(3-Aminosulfonyl-4-methylphenyl)-5-fluoro-N4-[4-(2-methoxyethyleneoxy)phenyl]-2,4-pyrimdinediamine] — 1.9-fold higher, 770 nM
- N2-(3-Aminosulphonylphenyl)-5-fluoro-N4-[4-(3-pyridinylmethyl)benzo[1,4]oxazin-7-yl]-2,4-pyrimidinediamine [VII-56] — 3.1-fold higher, 1280 nM
- CNS(=O)(=O)c1cc(Nc2ncc(F)c(Nc3ccc4c(c3)CCN4S(C)(=O)=O)n2)ccc1C [VII-62, 5-Fluoro-N2-[3-(N-methylaminosulfony)-4-methylphenyl]-N4-[4-(1-methylsulfonyl)indolin-5-yl]-2,4-pyrimidinediamine] — 2.8-fold lower, 144 nM
- Cc1ccc(Nc2ncc(F)c(Nc3ccc4[nH]cc(CC#N)c4c3)n2)cc1S(=O)(=O)NC1CCN(C)CC1 [IX-19, N4-(3-cyanomethylene-1H-indol-5yl)-5-fluoro-N2-[3-(1-methyl-4-aminopiperadine)sulfonyl-4-methylphenyl]-2,4-pyrimidinediamine] — 3.9-fold higher, 1600 nM
- CCS(=O)(=O)N1CCc2cc(Nc3nc(Nc4ccc(S(N)(=O)=O)cc4)ncc3F)ccc2C1 [VII-13, N2-(4-aminosulfonyl)phenyl-N4-[(N-ethylsulfonyl)-1,2,3,4-tetrahydroisoquinolin-6-yl]-5-fluoro-2,4-pyrimidinediamine] — within 1.5-fold, 380 nM
- COc1ccc(Nc2nc(Nc3cc(C)c4c(c3)S(=O)(=O)NC=N4)ncc2F)cc1Cl [VIII-3, N4-(3-Chloro-4-methoxyphenyl)-5-fluoro-N2-(5-methyl-2H-1,1-dioxo-1,2,4-benzothiadiazin-7-yl)-2,4-pyrimidinediamine] — 4.5-fold higher, 1840 nM
- N2-(3-Aminosulphonylphenyl)-5-fluoro-N4-[4-(3-pyridinylmethyl)benzo[1,4]oxazin-7-yl]-2,4-pyrimidinediamine [VII-55] — within 1.5-fold, 599 nM
- Cc1ccc(Nc2ncc(F)c(Nc3ccc4c(c3)c(CC#N)cn4C)n2)cc1S(N)(=O)=O [IX-20] — 4.4-fold higher, 1790 nM
